Activity calls are given as the source filed them. How the calls were made is not given here.

The test system of this series is rodent carcinogenicity bioassays, tumor incidence. Nature of the series: CCRIS carcinogenicity studies. An outline of the steps:
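NCI-built, expert-reviewed records of carcinogenicity and related test outcomes (mutagenicity, tumor promotion/inhibition) compiled from published and report sources, historical span 1985-2011, not updated.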

As to `O=[N+]([O-])c1cc2cccc3ccc4cccc1c4c32`, the carcinogen call (Species: RAT, Strain/Sex: STRAIN-CD/FEMALE, Route: INJECTION, Dose: 0, 0.1 ML IN 20.3 UMOL/ML DMSO INJECTED INTO MAMMARY TISSUE OF THE 3 LEFT THORACIC NIPPLES FOLLOWED THE NEXT D BY SIMILA, Tumor Site: Type of Lesion: MAMMARY GLAND: FIBROADENOMA, ADENOCARCINOMA) was “active; positive”; the carcinogen call (Species: RAT, Strain/Sex: STRAIN-CD/FEMALE, Route: INJECTION, Dose: 0, 0.1 ML OF A 20.3 UMOL/ML SOLUTION IN DMSO INJECTED INTO MAMMARY TISSUE UNDERLYING 3 LEFT THORACIC NIPPLES THE FOLLOWI, Tumor Site: Type of Lesion: MAMMARY GLAND: FIBROADENOMA) was “active; positive”; the carcinogen call (Species: RAT, Strain/Sex: STRAIN-CD/FEMALE, Route: INTRAPERITONEAL, Dose: 0, 67 UMOL/KG BW IN DMSO 3/WK FOR 4 WK (STUDY DURATION: 61 WK), Tumor Site: Type of Lesion: MAMMARY GLAND: ADENOCARCINOMA) is “active; positive”; the carcinogen call (Species: RAT, Strain/Sex: STRAIN-CD/FEMALE, Route: INTRAPERITONEAL, Dose: 0, 67 UMOL/KG/BW IN 25 UMOL/ML DMSO 3/WK FOR 4 WK (TOTAL DOSE: 0; 119 UMOL) ADMINISTERED TO WEANLING RATS (STUDY DURATIO, Dose: 0, 67 UMOL/KG/BW IN 25 UMOL/ML DMSO 3/WK FOR 4 WK (TOTAL DOSE: 0; 119 UMOL) ADMINISTERED TO WEANLING RATS (STUDY DURATIO, Tumor Site: Type of Lesion: MAMMARY GLAND: ADENOCARCINOMA) is “active; positive”; the carcinogen call (Species: RAT, Strain/Sex: STRAIN-CD/FEMALE, Route: SUBCUTANEOUS, Dose: 0, 75 UMOL (TOTAL DOSE) ADMINISTERED OVER 8 WK BEGINNING WITHIN 24 HR OF BIRTH (STUDY DURATION: 86 WK), Tumor Site: Type of Lesion: MAMMARY GLAND: TUMOR, INTEGUMENTARY SYSTEM: MALIGNANT FIBROUS HISTIOCYTOMA, HEMATOPOIETIC SYSTEM: LEUKEMIA, ZYMBAL GLAND, Tumor Site: Type of Lesion: MAMMARY GLAND: TUMOR, INTEGUMENTARY SYSTEM: MALIGNANT FIBROUS HISTIOCYTOMA, HEMATOPOIETIC SYSTEM: LEUKEMIA, ZYMBAL GLAND) was “active; positive”.
Consider `ClC(Cl)c1ccccc1`, for which the carcinogen call by setting is: (Species: RAT, Strain/Sex: F344/FEMALE, Route: ORAL, Dose: 0, 0.1, 0.5, 2% IN FEED FOR 104 WK (STUDY DURATION: 104 WK), Dose: 0, 0.1, 0.5, 2% IN FEED FOR 104 WK (STUDY DURATION: 104 WK)) “inactive; negative”; (Species: RAT, Strain/Sex: F344/MALE, Route: ORAL, Dose: 0, 0.1, 0.5, 2% IN FEED FOR 104 WK (STUDY DURATION: 104 WK), Dose: 0, 0.1, 0.5, 2% IN FEED FOR 104 WK (STUDY DURATION: 104 WK)) “inactive; negative”.
On to `NC(=O)N(CCO)N=O`, for which the carcinogen call reads like this: (Species: HAMSTER, Strain/Sex: SYRIAN/FEMALE, Route: GAVAGE, Dose: 0, 14 MG/ML ((0.2 ML OF A SOLUTION IN ETHYL ACETATE/CORN OIL (1:2)) 1/WK FOR 22 WK (STUDY DURATION: LIFE SPAN), Tumor Site: Type of Lesion: LIVER: HEMANGIOSARCOMA, SPLEEN: HEMANGIOSARCOMA) “active; positive”; (Species: HAMSTER, Strain/Sex: SYRIAN/MALE, Route: GAVAGE, Dose: 0, 14 MG/ML ((0.2 ML OF A SOLUTION IN ETHYL ACETATE/CORN OIL (1:2)) 1/WK FOR 22 WK (STUDY DURATION: 20 WK), Tumor Site: Type of Lesion: LIVER: HEMANGIOSARCOMA, PANCREAS: CARCINOMA OR ADENOMA, SPLEEN: HEMANGIOSARCOMA, FORESTOMACH: SQUAMOUS CELL CARCINOMA OR, Tumor Site: Type of Lesion: LIVER: HEMANGIOSARCOMA, PANCREAS: CARCINOMA OR ADENOMA, SPLEEN: HEMANGIOSARCOMA, FORESTOMACH: SQUAMOUS CELL CARCINOMA OR) “active; positive”; (Species: RAT, Strain/Sex: F344/MALE, Route: GAVAGE, Dose: 0, 2.4 MG IN 0.2 ML ETHYL ACETATE/CORN OIL (1:1) 2/WK FOR 30 WK (TOTAL DOSE: 168 MG) (STUDY DURATION: 80 WK), Tumor Site: Type of Lesion: LUNG: CARCINOMA OR ADENOMA, THYROID: CARCINOMA OR ADENOMA) “active; positive”.
On to `CCOS(=O)(=O)OCC`, for which the carcinogen call is “active; positive” (Species: RAT, Route: ORAL, Tumor Site: Type of Lesion: FORESTOMACH) and “active; positive” (Species: RAT, Route: SUBCUTANEOUS, Tumor Site: Type of Lesion: INJECTION SITE).
In the case of `O=C1OC2(c3ccccc31)c1ccc(O)c(Br)c1Oc1c2ccc(O)c1Br`, the carcinogen call was “inactive; negative” (Species: MOUSE, Strain/Sex: ICR/FEMALE, Route: DERMAL, Dose: 0, 1 MG IN 0.1 ML DISTILLED WATER 2/WK FOR A MEAN TOTAL DOSE OF 136.5 MG (STUDY DURATION: 18 MO)) and “inactive; negative” (Species: MOUSE, Strain/Sex: ICR/MALE, Route: DERMAL, Dose: 0, 1 MG IN 0.1 ML DISTILLED WATER 2/WK FOR A MEAN TOTAL DOSE OF 136.5 MG (STUDY DURATION: 18 MO)).
As for `Cc1[nH]cnc1CSCCN=C(NC#N)N(C)N=O`, the carcinogen call (Species: MOUSE, Strain/Sex: B6C3F1/FEMALE, Route: ORAL, Dose: 0, 18.8, 190 MG/D IN DRINKING WATER FOR LIFE ADMINISTERED TO MICE OF MOTHERS EXPOSED TO SAME DOSES THROUGH PREGNANCY AND, Dose: 0, 18.8, 190 MG/D IN DRINKING WATER FOR LIFE ADMINISTERED TO MICE OF MOTHERS EXPOSED TO SAME DOSES THROUGH PREGNANCY AND) is “inactive; negative”; the carcinogen call (Species: MOUSE, Strain/Sex: B6C3F1/MALE, Route: ORAL, Dose: 0, 18.8, 190 MG/D IN DRINKING WATER FOR LIFE ADMINISTERED TO MICE OF MOTHERS EXPOSED TO SAME DOSES THROUGH PREGNANCY AND, Dose: 0, 18.8, 190 MG/D IN DRINKING WATER FOR LIFE ADMINISTERED TO MICE OF MOTHERS EXPOSED TO SAME DOSES THROUGH PREGNANCY AND) is “inactive; negative”; the carcinogen call (Species: MOUSE, Strain/Sex: C57BL/FEMALE, Route: ORAL, Dose: 0, 18.8, 190 MG/D IN DRINKING WATER BEGINNING AT 7-8 WK OF AGE AND CONTINUING FOR STUDY DURATION (STUDY DURATION: LIFE S, Dose: 0, 18.8, 190 MG/D IN DRINKING WATER BEGINNING AT 7-8 WK OF AGE AND CONTINUING FOR STUDY DURATION (STUDY DURATION: LIFE S) was “inactive; negative”; the carcinogen call (Species: RAT, Strain/Sex: F344/FEMALE, Route: ORAL, Dose: 0, 150 MG/L IN DRINKING WATER 5D/WK FOR 106 WK FOR A TOTAL DOSE OF 0, 1600 MG (STUDY DURATION: 131 WK), Dose: 0, 150 MG/L IN DRINKING WATER 5D/WK FOR 106 WK FOR A TOTAL DOSE OF 0, 1600 MG (STUDY DURATION: 131 WK)) is “inactive; negative”; the carcinogen call (Species: RAT, Strain/Sex: F344/MALE, Route: ORAL, Dose: 0, 150 MG/L IN DRINKING WATER 5D/WK FOR 106 WK FOR A TOTAL DOSE OF 0, 1600 MG (STUDY DURATION: 131 WK), Dose: 0, 150 MG/L IN DRINKING WATER 5D/WK FOR 106 WK FOR A TOTAL DOSE OF 0, 1600 MG (STUDY DURATION: 131 WK)) was “inactive; negative”; the carcinogen call (Species: RAT, Strain/Sex: SPRAGUE-DAWLEY/FEMALE, Route: GAVAGE, Dose: 0, 50, 500 MG/KG 2/WK FOR 1 YR (STUDY DURATION: LIFETIME), Dose: 0, 50, 500 MG/KG 2/WK FOR 1 YR (STUDY DURATION: LIFETIME)) was “inactive; negative”. Also, the carcinogen call (Species: RAT, Strain/Sex: SPRAGUE-DAWLEY/MALE, Route: GAVAGE, Dose: 0, 50, 500 MG/KG 2/WK FOR 1 YR (STUDY DURATION: LIFETIME), Dose: 0, 50, 500 MG/KG 2/WK FOR 1 YR (STUDY DURATION: LIFETIME)) was “inactive; negative”.

Values taken from PubChem BioAssay AID1259411 (Chemical Carcinogenesis Research Information System (CCRIS), 2018).
